# Laboratory results as given in PubChem BioAssay (NCI).
# Where “and” joins values, the source holds several entries; their conditions need not be identical. Equal entries are not always repeated.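 Five compound concentrations were applied to cells in 96-well plates for 48 hours; endpoints were derived by simple linear interpolation of the resulting dose-response curve. GI50: concentration for 50% inhibition of growth. The concentration for full growth arrest is given as TGI.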
# Tested on: U251 CNS
# Assay: growth of human tumour cells (NCI), 48 h
SMILES,GI50 [µM],TGI [µM]
COc1cc(-n2cc(-c3ccc(F)cc3)[nH]c2=O)cc(OC)c1OC,71.6,> 100
C1CN2CCN3CCN4CCN1[P+]243,–,> 100

# Tested on: HCC-2998 colon
# Assay: growth of human tumour cells (NCI), 48 h
SMILES,GI50 [µM],TGI [µM]
CN(C)CC[PH+](c1ccccc1)c1ccccc1.CN(C)CC[PH+](c1ccccc1)c1ccccc1.[Cl-].[Pd+2],> 100,> 100
COc1cc(NCc2ccc3nc(N)nc(N)c3c2C)cc(OC)c1OC (tested in a mixture with another compound),0.00957,–
Cc1nn(-c2ccc(Cl)cc2)c2nc3c(nc12)C(=O)c1ccccc1-3,> 100,> 100
O=C(c1ccccc1)c1cc2ccccc2o1,> 100,> 100
O=C(Nc1ccncc1)C(=O)c1cn(S(=O)(=O)c2ccc(F)cc2)c2ccccc12,8.57,> 100
COc1ccc(NC(=O)/C(Cc2cc(=O)oc3cc(O)ccc23)=N\NC(C)(C)C)c(OC)c1,–,> 100
Nc1nc(/C=C\c2ccc([N+](=O)[O-])s2)nc(N2CCCC2)n1,4.86,12.8
O=C1/C(=C/c2ccc3c(c2)OCO3)SC2C=Nc3ccccc3N12 (centres undefined),–,> 100
CCOc1ccc(NC(=O)C(=O)CC(=O)c2c(C)n([O-])c3ccccc3[n+]2=O)cc1,–,> 100
Cc1cc(Cl)ccc1NC(=O)C(=O)Cc1nc2ccccc2o1,–,> 100
OCC1OC(c2nc(C3=NCCCN3)cs2)C(O)C1O (centres undefined),–,> 100
CCC(C)COC(=O)c1ccc(N=Cc2ccc(C=Nc3ccc(C(=O)OCC(C)CC)cc3)cc2)cc1 (centres undefined),–,> 100
Cc1cc(N(CCC#N)CCC#N)ccc1N=Nc1ccc(C(=O)O)cc1,–,> 100
CN(C)CC1CCCC/C1=N/OC(=O)c1ccc(Cl)cc1 (centres undefined),–,> 100
N#CC(C(=O)C(=O)C(C#N)c1ccc(Br)cc1)c1ccc(Br)cc1 (centres undefined),–,24.5
COc1cccc(C2=NC(C(C)C)CO2)c1 (centres undefined),–,> 100
CCOC(=O)C(=[N+]=[N-])[Si](C)(C)C,–,> 100
O=C(CC1(O)C(=O)N(Cc2ccccc2)c2ccc(F)cc21)c1ccc(C(=O)NCC2CCC3(CC2)OOC2(CCCCC2)OO3)cc1 (centres undefined),1.84,3.92

SMILES,GI50 [µM],TGI [µM]
COc1cc2c3c(n(C)c(=O)c2cc1OC)-c1cc2c(cc1/C3=C\CN)OCO2,0.0628,0.589
CCCc1nc(NC#N)nc(C(=O)Nc2ccccc2)c1CC,–,> 100
O=C(CCc1n[nH]c(=S)o1)Nc1ccccc1C(F)(F)F,–,> 100
CCn1c2ccccc2c2cc(NC(=O)Nc3ccc([N+](=O)[O-])cc3C)ccc21,4.25,> 100
Cc1ccc(NC(=O)CCc2cc(C(C)(C)C)nc(=S)[nH]2)cc1C,–,> 100
Cc1[nH]c2ccccc2c1C(=O)/C=C/c1ccccc1O,–,> 100
O=C(Nc1nc(=S)c2c(ncn2CCOC(=O)c2ccccc2)[nH]1)c1ccccc1,–,> 100
COc1ccc(CC2NCCc3c2[nH]c2ccccc32)cc1 (centres undefined),–,48.3
CCOc1ccc(NC(=O)CC#N)cc1,–,> 100
O=C(/C=C/c1cccc2ccccc12)c1ccccc1Cl,–,28.4
COc1ccc2c(c1)C(=O)c1c-2c(N2CCN(C(=O)CNCCNCCO)CC2)nc2ccccc12,2.58,7.58
Cc1ccc(/C=C/C(=O)c2sc(-c3nc(C)c(C(=O)/C=C/c4ccc(C)cc4)s3)nc2C)cc1,–,> 100
O=C1/C(=C/c2ccc(Cl)cc2)CCC1CCN1CCOCC1 (centres undefined),–,> 100
Cn1cc(-c2csc(-c3c[nH]c4ccc(F)cc34)n2)c2cnccc21,1.95,3.66
O=c1ccn([C@H]2CSC[C@@H](CO)C2)c(=O)[nH]1,–,> 100
COc1cc(-n2cc(-c3ccc(F)cc3)[nH]c2=O)cc(OC)c1OC,> 100,> 100
C1CN2CCN3CCN4CCN1[P+]243,–,> 100

# Tested on: HOP-62 NSCLC
# Assay: growth of human tumour cells (NCI), 48 h
SMILES,GI50 [µM],TGI [µM]
Cc1nn(-c2ccc(Cl)cc2)c2nc3c(nc12)C(=O)c1ccccc1-3,13.7,> 100
O=C(c1ccccc1)c1cc2ccccc2o1,> 100,> 100
O=C(Nc1ccncc1)C(=O)c1cn(S(=O)(=O)c2ccc(F)cc2)c2ccccc12,3.02,> 100
COc1ccc(NC(=O)/C(Cc2cc(=O)oc3cc(O)ccc23)=N\NC(C)(C)C)c(OC)c1,–,> 100
Nc1nc(/C=C\c2ccc([N+](=O)[O-])s2)nc(N2CCCC2)n1,13.5,26.7
O=C1/C(=C/c2ccc3c(c2)OCO3)SC2C=Nc3ccccc3N12 (centres undefined),–,> 100
CCOc1ccc(NC(=O)C(=O)CC(=O)c2c(C)n([O-])c3ccccc3[n+]2=O)cc1,–,> 100
Cc1cc(Cl)ccc1NC(=O)C(=O)Cc1nc2ccccc2o1,–,> 100
OCC1OC(c2nc(C3=NCCCN3)cs2)C(O)C1O (centres undefined),–,> 100
Oc1cccnc1[Se],–,64.7
CCC(C)COC(=O)c1ccc(N=Cc2ccc(C=Nc3ccc(C(=O)OCC(C)CC)cc3)cc2)cc1 (centres undefined),–,> 100
Cc1cc(N(CCC#N)CCC#N)ccc1N=Nc1ccc(C(=O)O)cc1,–,> 100
CN(C)CC1CCCC/C1=N/OC(=O)c1ccc(Cl)cc1 (centres undefined),–,> 100
N#CC(C(=O)C(=O)C(C#N)c1ccc(Br)cc1)c1ccc(Br)cc1 (centres undefined),–,27.2
COc1cccc(C2=NC(C(C)C)CO2)c1 (centres undefined),–,> 100
O=C1/C(=C/c2cccc(Cl)c2Cl)N=C(c2ccccc2)N1C1CC1,8.37,16.5
CCOC(=O)C(=[N+]=[N-])[Si](C)(C)C,–,49.7
O=C(CC1(O)C(=O)N(Cc2ccccc2)c2ccc(F)cc21)c1ccc(C(=O)NCC2CCC3(CC2)OOC2(CCCCC2)OO3)cc1 (centres undefined),0.179,0.382

SMILES,GI50 [µM],TGI [µM]
COc1cc2c3c(n(C)c(=O)c2cc1OC)-c1cc2c(cc1/C3=C\CN)OCO2,0.189,17
CCCc1nc(NC#N)nc(C(=O)Nc2ccccc2)c1CC,–,> 100
O=C(CCc1n[nH]c(=S)o1)Nc1ccccc1C(F)(F)F,–,> 100
CCn1c2ccccc2c2cc(NC(=O)Nc3ccc([N+](=O)[O-])cc3C)ccc21,5.02,55.2
Cc1ccc(NC(=O)CCc2cc(C(C)(C)C)nc(=S)[nH]2)cc1C,–,> 100
Cc1[nH]c2ccccc2c1C(=O)/C=C/c1ccccc1O,–,> 100
O=C(Nc1nc(=S)c2c(ncn2CCOC(=O)c2ccccc2)[nH]1)c1ccccc1,–,79.6
COc1ccc(CC2NCCc3c2[nH]c2ccccc32)cc1 (centres undefined),–,> 100
CCOc1ccc(NC(=O)CC#N)cc1,–,> 100
O=C(/C=C/c1cccc2ccccc12)c1ccccc1Cl,–,37.3
Cc1ccc(/C=C/C(=O)c2sc(-c3nc(C)c(C(=O)/C=C/c4ccc(C)cc4)s3)nc2C)cc1,–,> 100
O=C1/C(=C/c2ccc(Cl)cc2)CCC1CCN1CCOCC1 (centres undefined),–,> 100
Cn1cc(-c2csc(-c3c[nH]c4ccc(F)cc34)n2)c2cnccc21,1.54,2.98
CCC[CH2][Sn]([Cl])([CH2]CCC)[CH2]CCC,0.271,1.13
O=c1ccn([C@H]2CSC[C@@H](CO)C2)c(=O)[nH]1,–,> 100
COc1cc(-n2cc(-c3ccc(F)cc3)[nH]c2=O)cc(OC)c1OC,> 100,> 100
C1CN2CCN3CCN4CCN1[P+]243,–,> 100

# Tested on: SW-620 colon
# Assay: growth of human tumour cells (NCI), 48 h
SMILES,GI50 [µM],TGI
CN(C)CC[PH+](c1ccccc1)c1ccccc1.CN(C)CC[PH+](c1ccccc1)c1ccccc1.[Cl-].[Pd+2],> 100,> 100 µM
COc1cc(NCc2ccc3nc(N)nc(N)c3c2C)cc(OC)c1OC (tested in a mixture with another compound),0.000285,16.4 µM and 50.9 µM
Cc1nn(-c2ccc(Cl)cc2)c2nc3c(nc12)C(=O)c1ccccc1-3,> 100,> 100 µM
O=C(c1ccccc1)c1cc2ccccc2o1,80,> 100 µM
O=C(Nc1ccncc1)C(=O)c1cn(S(=O)(=O)c2ccc(F)cc2)c2ccccc12,2.34,> 100 µM
COc1ccc(NC(=O)/C(Cc2cc(=O)oc3cc(O)ccc23)=N\NC(C)(C)C)c(OC)c1,–,> 100 µM
Nc1nc(/C=C\c2ccc([N+](=O)[O-])s2)nc(N2CCCC2)n1,2.76,24 µM
O=C1/C(=C/c2ccc3c(c2)OCO3)SC2C=Nc3ccccc3N12 (centres undefined),–,> 100 µM
